We go through 13 compounds from paper doi:10.1101/2025.08.13.670122v1 (bioRxiv, 2025).

As usually defined, the EC50 is the midpoint of the concentration-response curve.

Assay [1] deals with T1, AT1R (Homo sapiens, UniProt P30556).
T1 sequence (P30556 1-359): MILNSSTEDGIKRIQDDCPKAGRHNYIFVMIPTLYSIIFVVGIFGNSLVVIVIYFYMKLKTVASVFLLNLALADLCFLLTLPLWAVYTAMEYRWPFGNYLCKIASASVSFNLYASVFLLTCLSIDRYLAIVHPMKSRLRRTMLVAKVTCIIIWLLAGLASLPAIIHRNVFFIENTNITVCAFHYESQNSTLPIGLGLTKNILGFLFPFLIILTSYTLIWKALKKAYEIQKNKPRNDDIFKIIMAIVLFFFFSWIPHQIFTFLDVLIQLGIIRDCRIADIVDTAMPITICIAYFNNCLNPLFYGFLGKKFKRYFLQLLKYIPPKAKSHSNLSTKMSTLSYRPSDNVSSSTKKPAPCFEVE
The assay is described as follows: Gαq activation BRET (GABY sensor) in HEK293 cells expressing AT1R. Details: expressed in transfected cells; host or cells: HEK293 cells, transient PEI transfection. In kind it is cell-based. The following applies: for Emax Gαq (% AngII): HEK293/AT1R, GABY BRET sensor, response of the ligand at 10 μM, normalised to AngII; for EC50: HEK293 cells transiently expressing human AT1R, Gαq-RlucII/Gβ1/Gγ1-GFP10 (GABY) BRET sensor, BRET read 10 min after ligand, mean ± SEM of at least three to five independent experiments. An excerpt: (§1) We utilized a clonal cell line HEK293, referred to hereafter as HEK293 cells, which has been previously described.[7],[8] As a gracious gift from A. Inoue (Tohoku University, Sendai, Miyagi, Japan), CRISPR Gαq/11 and Gα12/13 knockout cell lines (ΔGq/11 and ΔG12/13, respectively), were derived as previously explained.[48] In brief, a CRISPR-Cas9 system was used to target either GNAQ and GNA11 or GNA12 and GNA13 genes in HEK293T cells simultaneously to generate the Gαq/11 and Gα12/13 knockout cell lines. For the production of adenovirus, we utilized HEK293A cells. All cells were grown in DMEM supplemented with 10% FBS and Penicillin-Streptomycin-L-Glutamine (10000 IU penicillin, 10000 µg/mL Streptomycin, 200 mM L-Glutamine) at 37°C in T175 flasks under a 5% CO2 humidified chamber. Periodic testing was carried out for mycoplasma contamination (ABM™, Mycoplasma PCR Detection kit). For all biosensors used, cells underwent transfection with the PEI reagent, employing a PEI:DNA ratio of 3:1. For the Gαq biosensor, HEK293 cells were transfected with the plasmids coding for Gαq-RLucII (120 ng), Gβ1 (3000 ng), Gγ1-GFP10 (3000 ng), human AT1 (3000 ng) and Salmon sperm DNA (SSD) (880 ng). For the β-arrestin2 recruitment assay, HEK293 cells were transfected with the plasmids coding for 120 ng β-arrestin-2-RLucII, 3000 ng AT1, 3000 ng rGFP-CAAX, and 3880 ng SSD. For the measurement of PKC, HEK293 cells were transfected with 3000 ng AT1, 600 ng PKC-c1b, and 6400 ng SSD. […] 100 µL of the cell/DNA mixture was added to white 96-well plates and incubated at 37°C at 5% CO2 for 48 h. For the Rho assay, ΔG12/13 cells were seeded at a density of 9,000 cells per well in poly-ornithine-coated white 96-well plates and transfected the following day. In brief, 1 μg of total DNA in 100 μL of PBS was mixed with 100 μL of PBS containing 3 μL of 1 mg/mL PEI. For Rho signaling, 150 ng of AT1R DNA with 25 ng of PKN-RBD-RlucII [8], and 100 ng of rGFP-CAAX were used. Empty pcDNA was used to reach 1 µg of the total DNA amount in 100 μL of PBS. The DNA was then mixed with 100 μL of PBS containing 3 μL of 1 mg/mL PEI. After a 20-min incubation, the DNA/PEI complexes were dispensed into cells in 96-well plates (15 µL/well), and the experiment was carried out 48 h post-transfection.
(§2) On the day of the experiment, each well was washed with 80 µL of Tyrode’s buffer (140 mM NaCl, 2.7 mM KCl, 1 mM CaCl2, 12 mM NaHCO3, 5.6 mM D-glucose, 0.5 mM MgCl2, 0.37 mM NaH2PO4, 25 mM Hepes (pH 7.4)). This was followed by incubation for 1 h in Tyrode’s buffer at room temperature. For the Gαq, β-arrestin-2, and PKC biosensors used in HEK293 cells, coelenterazine 400A (at a final concentration of 5 μM) was added 10 min before stimulation. Cells were then stimulated with increasing doses of the indicated ligand, and BRET signals were measured using a Tristar2 (Berthold) microplate reader 10 min later. For the PKC and Rho biosensors in VSMCs, and the Rho biosensor in ΔG12/13 cells, cells were similarly stimulated with ligands for 1 min, 1 min 30 s, and 3 min, respectively, before BRET measurement. […] BRET signals were then measured using a Synergy2 (BioTek) microplate reader. The applied filter set was 410/80 nm and 515/30 nm, designed to detect the light emissions of RlucII (Renilla luciferase) (donor) and rGFP (acceptor), respectively.

For assay [2], the target named is T1, AT1R. The experiment in a line: β-arrestin2 recruitment BRET (β-arrestin2-RLucII/rGFP-CAAX) in HEK293 cells expressing AT1R. Details: expressed in transfected cells; host or cells: HEK293 cells, transient PEI transfection. The note with it: for Emax βarr2 (% AngII): HEK293/AT1R, β-arrestin2 BRET, response of the ligand at 10 μM, normalised to AngII; for EC50: HEK293 cells transiently expressing AT1R, β-arrestin2-RLucII/rGFP-CAAX BRET, read 10 min after ligand, mean ± SEM of at least three to five independent experiments, SEM, read-out: EC50 βarr2. In kind it is cell-based.
Description: as §1, §2
On the technique in general: Arrestin recruitment assays detect the binding of arrestin to an activated receptor.

Molecules are shown by their SMILES. Peptide text beside a SMILES is read from it.

Regarding `CC[C@H](C)[C@H](NC(=O)[C@H](Cc1ccc(O)cc1)NC(=O)[C@@H](NC(=O)[C@H](CCCNC(=N)N)NC(=O)[C@@H](N)CC(=O)O)C(C)C)C(=O)N[C@@H](Cc1c[nH]cn1)C(=O)N1CCC[C@H]1C(=O)N[C@@H](Cc1cccc(O)c1)C(=O)O` [24b], the “Emax Gαq (% AngII)” value in assay [1] is 49 % AngII. Also, the EC50 in assay [1] (SEM) worked out at 4.6 ± 3 nM. In assay [2], the “Emax βarr2 (% AngII)” value came out at 93 % AngII and the EC50 stood at 2.8 ± 0.6 nM.
Take `CC[C@H](C)[C@H](NC(=O)[C@H](Cc1ccc(O)cc1)NC(=O)[C@@H](NC(=O)[C@H](CCCN=C(N)N)NC(=O)[C@@H](N)CC(=O)O)C(C)C)C(=O)N[C@@H](Cc1c[nH]cn1)C(=O)N1CCC[C@H]1C(=O)N[C@@H](Cc1ccc(O)cc1)C(=O)O` [24c] (H-DRVYIHPY-OH): the EC50 in assay [1] (SEM) amounted to 4.2 ± 1.3 nM; in assay [2] it was 2.6 ± 0.8 nM.
`CC[C@H](C)[C@H](NC(=O)[C@H](Cc1ccc(O)cc1)NC(=O)[C@@H](NC(=O)[C@H](CCCNC(=N)N)NC(=O)[C@@H](N)CC(=O)O)C(C)C)C(=O)N[C@@H](Cc1c[nH]cn1)C(=O)N1CCC[C@H]1C(=O)N[C@@H](Cc1ccc(O)cc1)C(=O)O` [24c] (H-DRVYIHPY-OH): the “Emax Gαq (% AngII)” value in assay [1] amounted to 89 % AngII. In assay [2], the “Emax βarr2 (% AngII)” value is 105 % AngII.
As for `CCCC[C@H](NC(=O)[C@@H]1CCCN1C(=O)[C@H](Cc1c[nH]cn1)NC(=O)[C@@H](NC(=O)[C@H](Cc1ccc(O)cc1)NC(=O)[C@@H](NC(=O)[C@H](CCCNC(=N)N)NC(=O)[C@@H](N)CC(=O)O)C(C)C)[C@@H](C)CC)C(=O)O` [compound 2], the “Emax Gαq (% AngII)” value in assay [1] came out at 36 % AngII. Further, in assay [1] (SEM), the EC50 is 3 ± 3.6 nM. In assay [2], the “Emax βarr2 (% AngII)” value worked out at 92 % AngII and the EC50 was determined as 0.86 ± 0.16 nM.
For `CC[C@H](C)[C@H](NC(=O)[C@H](Cc1ccc(O)cc1)NC(=O)[C@@H](NC(=O)[C@H](CCCNC(=N)N)NC(=O)[C@@H](N)CC(=O)O)C(C)C)C(=O)N[C@@H](Cc1c[nH]cn1)C(=O)N1CCC[C@H]1C(=O)N[C@H](C(=O)O)C(C)(C)C` [compound 3] the same measures were 19 % AngII, 0.36 ± 0.84 nM, 81 % AngII and 2.3 ± 0.4 nM.
Turning to `CC[C@H](C)[C@H](NC(=O)[C@H](Cc1ccc(O)cc1)NC(=O)[C@@H](NC(=O)[C@H](CCCNC(=N)N)NC(=O)[C@@H](N)CC(=O)O)C(C)C)C(=O)N[C@@H](Cc1c[nH]cn1)C(=O)N1CCC[C@H]1C(=O)N[C@@H](CC1CCCCC1)C(=O)O` [compound 4], the “Emax Gαq (% AngII)” value in assay [1] is on record as 52 % AngII. For the same compound, the values for the EC50 in assay [1] (SEM) and in assay [2] were 5.5 ± 3.9 nM and 1.4 ± 0.2 nM, respectively. Also, the “Emax βarr2 (% AngII)” value in assay [2] is on record as 95 % AngII.
In the case of `CC[C@H](C)[C@H](NC(=O)[C@H](Cc1ccc(O)cc1)NC(=O)[C@@H](NC(=O)[C@H](CCCNC(=N)N)NC(=O)[C@@H](N)CC(=O)O)C(C)C)C(=O)N[C@@H](Cc1c[nH]cn1)C(=O)N1CCC[C@H]1C(=O)N[C@@H](CCCN)C(=O)O` [compound 5], the EC50 in assay [1] is > 10000 nM. In assay [2], the “Emax βarr2 (% AngII)” value was found to be 45 % AngII and the EC50 was 4560 ± 3880 nM.
Consider `CC[C@H](C)[C@H](NC(=O)[C@H](Cc1ccc(O)cc1)NC(=O)[C@@H](NC(=O)[C@H](CCCNC(=N)N)NC(=O)[C@@H](N)CC(=O)O)C(C)C)C(=O)N[C@@H](Cc1c[nH]cn1)C(=O)N1CCC[C@H]1C(=O)N[C@@H](CCC(=O)O)C(=O)O` [compound 6] (H-DRVYIHPE-OH; N-terminus assumed), for which the EC50 in assay [1] is > 10000 nM. For the same compound, in assay [2], the “Emax βarr2 (% AngII)” value is recorded as 63 % AngII and the EC50 turned out to be 957 ± 111 nM.
The corresponding values for `CC[C@H](C)[C@H](NC(=O)[C@H](Cc1ccc(O)cc1)NC(=O)[C@@H](NC(=O)[C@H](CCCNC(=N)N)NC(=O)[C@@H](N)CC(=O)O)C(C)C)C(=O)N[C@@H](Cc1c[nH]cn1)C(=O)N1CCC[C@H]1C(=O)N[C@@H](CCC(N)=O)C(=O)O` [compound 7] (H-DRVYIHPQ-OH; N-terminus assumed) are > 10000 nM, 56 % AngII and 158 ± 20 nM.
Regarding `CC[C@H](C)[C@H](NC(=O)[C@H](Cc1ccc(O)cc1)NC(=O)[C@@H](NC(=O)[C@H](CCCNC(=N)N)NC(=O)[C@@H](N)CC(=O)O)C(C)C)C(=O)N[C@@H](Cc1c[nH]cn1)C(=O)N1CCC[C@H]1C(=O)N[C@@H](Cc1cccc2ccccc12)C(=O)O` [compound 8], the “Emax Gαq (% AngII)” value in assay [1] is on record as 61 % AngII. Moreover, the EC50 in assay [1] (SEM) was found to be 8.3 ± 5.1 nM. Moreover, in assay [2], the “Emax βarr2 (% AngII)” value was 101 % AngII and the EC50 was determined as 2.1 ± 0.4 nM.
Consider `CC[C@H](C)[C@H](NC(=O)[C@H](Cc1ccc(O)cc1)NC(=O)[C@@H](NC(=O)[C@H](CCCNC(=N)N)NC(=O)[C@@H](N)CC(=O)O)C(C)C)C(=O)N[C@@H](Cc1c[nH]cn1)C(=O)N1CCC[C@H]1C(=O)N[C@@H](Cc1ccc2ccccc2c1)C(=O)O` [compound 9], for which the “Emax Gαq (% AngII)” value in assay [1] is 69 % AngII. The EC50 in assay [1] (SEM) amounted to 3.9 ± 1.9 nM. For the same compound, in assay [2], the “Emax βarr2 (% AngII)” value came out at 97 % AngII and the EC50 was 1 ± 0.3 nM.
For `C=CCOc1ccc(C[C@H](NC(=O)[C@@H]2CCCN2C(=O)[C@H](Cc2c[nH]cn2)NC(=O)[C@@H](NC(=O)[C@H](Cc2ccc(O)cc2)NC(=O)[C@@H](NC(=O)[C@H](CCCNC(=N)N)NC(=O)[C@@H](N)CC(=O)O)C(C)C)[C@@H](C)CC)C(=O)O)cc1` [compound 10] the same measures were 48 % AngII, 17 ± 10 nM, 100 % AngII and 7.4 ± 1.9 nM.
For `CC[C@H](C)[C@H](NC(=O)[C@H](Cc1ccc(O)cc1)NC(=O)[C@@H](NC(=O)[C@H](CCCNC(=N)N)NC(=O)[C@@H](N)CC(=O)O)C(C)C)C(=O)N[C@@H](Cc1c[nH]cn1)C(=O)N1CCC[C@H]1C(=O)N[C@@H](Cc1ccc(-c2ccccc2)cc1)C(=O)O` [compound 13] the same measures were 45 % AngII, 16 ± 12 nM, 98 % AngII and 15 ± 4 nM.
